Results published in ChEMBL document CHEMBL1130535, “Synthesis of triphosphonate analogues of farnesyl pyrophosphate. Inhibitors of squalene synthase and protein:farnesyl transferase” (Bioorg Med Chem Lett, 1997).
pIC50: −log10 of the molar value.

How the values were obtained:
[1] = target: Protein farnesyltransferase (Homo sapiens, UniProt P49354+P49356); assay: Inhibition of Farnesyl Transferase; format: protein-complex assay
Squalene synthase = target: T1, Squalene synthase (Homo sapiens, UniProt P37268); assay: Inhibition of Squalene Synthase
T1 sequence (P37268 whole entry): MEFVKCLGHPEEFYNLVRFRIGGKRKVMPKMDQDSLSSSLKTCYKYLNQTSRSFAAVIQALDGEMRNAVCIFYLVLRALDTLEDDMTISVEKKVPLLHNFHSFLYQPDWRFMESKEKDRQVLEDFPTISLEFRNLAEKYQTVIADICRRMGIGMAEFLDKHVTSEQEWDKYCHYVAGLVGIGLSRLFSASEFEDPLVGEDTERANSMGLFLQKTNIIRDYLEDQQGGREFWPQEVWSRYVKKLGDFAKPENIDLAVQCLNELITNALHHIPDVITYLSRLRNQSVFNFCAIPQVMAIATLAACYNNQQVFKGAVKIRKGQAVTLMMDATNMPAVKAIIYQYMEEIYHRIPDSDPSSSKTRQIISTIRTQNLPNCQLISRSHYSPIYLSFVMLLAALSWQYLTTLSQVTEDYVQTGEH

| pIC50 [1] | pIC50 (Squalene synthase) | Structure (SMILES) |
| --- | --- | --- |
| 4.87 | 7.74 | CC(C)=CCC/C(C)=C/CC/C(C)=C/CC(P(=O)(O)O)P(=O)(O)O |
| 5.40 | 4.63 | CC(C)=CCC/C(C)=C/CC/C(C)=C/CC(C/C=C(\C)CC/C=C(\C)CCC=C(C)C)(P(=O)(O)O)P(=O)(O)CP(=O)(O)O (stereo not given) |
| 4.47 | 4.33 | CC(C)=CCC/C(C)=C/CC/C(C)=C/CC1P(=O)(O)CP(=O)(O)OP1(=O)O (stereo not given) |
| 4.25 | < 4.30 | CC(C)=CCC/C(C)=C/CC/C(C)=C/CC1(C/C=C(\C)CC/C=C(\C)CCC=C(C)C)P(=O)(O)CP(=O)(O)OP1(=O)O (stereo not given) |
| 5.74 | 5.96 | CC(C)=CCC/C(C)=C/CC/C(C)=C/CC(P(=O)(O)O)P(=O)(O)CP(=O)(O)O (stereo not given) |
